From the supplement of paper PMC8967900

Assays:
Assay in all cases: selective drug sensitivity score (sDSS, relative to normal bone marrow) (sDSS (score)); higher = more potent and effective on the cell line relative to normal bone marrow cells
Conditions in all cases: 72 h
[1] = system: CCRF-HSB2
[2] = system: COG-LL-394h
[3] = system: HPB-ALL
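Note: ALL cell lines in 384-well plates, five doses spanning 10,000-fold, each plate scaled between vehicle and 100 µmol/L benzalkonium chloride controls, sDSS an adapted area-under-curve metric.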

SMILES | selective drug sensitivity score [1] | selective drug sensitivity score [2] | selective drug sensitivity score [3]
Cc1c(-c2ccc(N3CCc4cccc(C(=O)Nc5nc6ccccc6s5)c4C3)nc2C(=O)O)cnn1CC12CC3CC(CC(C3)C1)C2 (top concentration 1000 nM) | 10.2 | 7.94 | 25.5
O=C(NOC[C@H](O)CO)c1ccc(F)c(F)c1Nc1ccc(I)cc1F (top concentration 1000 nM) | 0.44 | -0.26 | 0.74
CO[C@@H](C)Cn1c(=O)n(C)c2cnc3ccc(-c4cncc(C(C)(C)O)c4)cc3c21 (top concentration 2500 nM) | 5.58 | -1.82 | 2.18
Cc1cccc(CC(=O)N2CCc3c2ccc(-c2cn(C)c4ncnc(N)c24)c3F)n1 (top concentration 2500 nM) | 2.82 | 5.42 | -0.68
CNC(=O)c1ccccc1Nc1nc(Nc2ccc3c(c2OC)CCC[C@H](N2CCN(CCO)CC2)C3)ncc1Cl (top concentration 5000 nM) | -1.44 | 3.16 | 1.66
COc1cc2ncnc(Oc3cccc(NC(=O)Nc4cc(C(C)(C)C(F)(F)F)on4)c3)c2cc1OC (top concentration 10000 nM) | 23.2 | 3.9 | 0
C[C@@H](Oc1cc(-n2cnc3ccc(CN4CCN(C)CC4)cc32)sc1C(N)=O)c1ccccc1C(F)(F)F (top concentration 10000 nM) | 24.2 | 3.22 | 11.6
Nc1nccc(-c2c(-c3ccc(F)cc3)ncn2C2CCCCC2)n1 (top concentration 10000 nM) | 3.4 | 0 | 0.4
O=C(O)c1ccc(-c2c[nH]c3ncc(-c4ccccc4)cc23)cc1C1CCCC1 (top concentration 10000 nM) | 3.16 | -1.44 | 0.06
C[C@@H]1CN(CC(=O)Nc2ccc3c(c2)Cc2cccc(-c4cc(=O)cc(N5CCOCC5)o4)c2S3)C[C@H](C)O1 (top concentration 25000 nM) | 0.42 | -0.68 | 2.22
COc1ccc2[nH]cc(/C=C3\C(=O)Nc4ccc(NC(=O)CCN5CCCCC5)cc43)c2c1 (top concentration 50000 nM) | 6.68 | 0.18 | -3.32
Cc1nn(C)c(COc2ccc(N3CCN(S(=O)(=O)N(C)C)CC3)cc2)c1-c1cccc2c(CCCOc3cccc4ccccc34)c(C(=O)O)n(CCN3CCOCC3)c12 (top concentration 50000 nM) | 5.36 | 4.56 | 2.16
C[C@H](Nc1ncnc2[nH]cnc12)c1cc2ccc(F)cc2nc1-c1ccccn1 [AMG319] (top concentration 1000 nM) | -1.32 | -1.42 | -1.42
C=CCn1c(=O)c2cnc(Nc3ccc(N4CCN(C)CC4)cc3)nc2n1-c1cccc(C(C)(C)O)n1 [AZD1775] (top concentration 10000 nM) | 13.6 | 5.54 | 9.44
NC(=O)Nc1cc(-c2cccc(F)c2)sc1C(=O)N[C@H]1CCCNC1 [AZD7762] (top concentration 1000 nM) | 8.2 | -3.5 | -1.5
Cc1cc([C@@H](C)Nc2ccccc2C(=O)O)c2nc(N3CCOCC3)cc(=O)n2c1 [AZD-6482] (top concentration 2500 nM) | 2.12 | -0.28 | 2.92
CN(C)Cc1c(C(=O)NCCOc2ccc(C(=O)NO)cc2)oc2ccccc12 [Abexinostat] (top concentration 10000 nM) | 6.36 | 3.86 | 6.76
S=C(NCc1ccc2c(c1)OCO2)N1CCN(c2ncnc3c2oc2ccccc23)CC1 [Amuvatinib] (top concentration 10000 nM) | 3.96 | 7.36 | 2.66
CC(=O)OC[C@H]1O[C@@H]([S-])[C@H](OC(C)=O)[C@@H](OC(C)=O)[C@@H]1OC(C)=O.CCP(CC)CC.[Au+] [Auranofin] (top concentration 2500 nM) | -1.86 | 0.14 | 5.64
CNC(=O)c1ccccc1Sc1ccc2c(/C=C/c3ccccn3)n[nH]c2c1 [Axitinib] (top concentration 10000 nM) | 11 | 2.96 | 7.56
Cc1c(N)nc([C@H](CC(N)=O)NC[C@H](N)C(N)=O)nc1C(=O)N[C@H](C(=O)N[C@H](C)[C@@H](O)[C@H](C)C(=O)N[C@H](C(=O)NCCc1nc(-c2nc(C(=O)NCCC[S+](C)C)cs2)cs1)[C@@H](C)O)[C@@H](O[C@@H]1O[C@@H](CO)[C@@H](O)[C@H](O)[C@@H]1O[C@H]1O[C@H](CO)[C@@H](O)[C@H](OC(N)=O)[C@@H]1O)c1c[nH]cn1 [Bleomycin] (top concentration 10000 nM) | -0.06 | 2.24 | -1.86
CC(C)C[C@H](NC(=O)[C@H](Cc1ccccc1)NC(=O)c1cnccn1)B(O)O [Bortezomib] (top concentration 1000 nM) | 5.82 | 2.42 | 5.22
CCC/C=C/C=C/C(=O)O[C@H]1/C(=C/C(=O)OC)C[C@H]2C[C@H]([C@@H](C)O)OC(=O)C[C@H](O)C[C@@H]3C[C@H](OC(C)=O)C(C)(C)[C@](O)(C[C@@H]4C/C(=C/C(=O)OC)C[C@H](/C=C/C(C)(C)[C@]1(O)O2)O4)O3 [Bryostatin_1] (top concentration 100 nM) | 20.4 | -5.92 | -7.12
CO[C@H]1CC[C@H](N2C(=O)CNc3ncc(-c4ccc(C(C)(C)O)nc4)nc32)CC1 [CC-223] (top concentration 10000 nM) | 2.62 | -2.28 | -0.28
CN(C)c1cc2c(cc1Sc1nc3c(N)nccc3n1CCNCC(C)(C)C)OCO2 [CUDC-305] (top concentration 10000 nM) | 8.12 | -1.28 | 4.42
CO[C@H]1C(=O)[C@]2(C)[C@@H](OC)C[C@H]3OC[C@@]3(OC(C)=O)[C@H]2[C@H](OC(=O)c2ccccc2)[C@]2(O)C[C@H](OC(=O)[C@H](O)[C@@H](NC(=O)OC(C)(C)C)c3ccccc3)C(C)=C1C2(C)C [Cabazitaxel] (top concentration 1000 nM) | 21.1 | 6.08 | 11.6
C=CC(=O)Nc1cc2c(Nc3ccc(F)c(Cl)c3)ncnc2cc1OCCCN1CCOCC1 [Canertinib] (top concentration 10000 nM) | 6.36 | 1.56 | 0.76
CC(C)C[C@H](NC(=O)[C@H](CCc1ccccc1)NC(=O)CN1CCOCC1)C(=O)N[C@@H](Cc1ccccc1)C(=O)N[C@@H](CC(C)C)C(=O)[C@@]1(C)CO1 [Carfilzomib] (top concentration 1000 nM) | 3.86 | 0.26 | 3.96
O=C(c1ccc(F)c(F)c1Nc1ccc(I)cc1F)N1CC(O)([C@@H]2CCCCN2)C1 [Cobimetinib] (top concentration 1000 nM) | -0.28 | -2.48 | -3.68
